SMILES strings stand for the structures.

For this assay, the target named is human adenosine A2a receptor (Homo sapiens (Human), UniProt P29274). Nature of the assay: A2a receptor binding affinity, [3H]-NECA radioligand binding test. The settings on record: [3H]-NECA 37 nM; membrane from HEK-293 cells transfected with human adenosine A2a receptor. The method, boiled down: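 Membranes from HEK-293 cells expressing human A2a receptor were incubated with [3H]-NECA (final 37 nM) and compound for 1 h at room temperature in 50 mM Tris, 10 mM MgCl2, 1 mM EDTA, pH 7.4. Bound ligand was filtered on PEI-coated plates and counted by scintillation to derive IC50 (μM).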
Chain of human adenosine A2a receptor (P29274 whole entry): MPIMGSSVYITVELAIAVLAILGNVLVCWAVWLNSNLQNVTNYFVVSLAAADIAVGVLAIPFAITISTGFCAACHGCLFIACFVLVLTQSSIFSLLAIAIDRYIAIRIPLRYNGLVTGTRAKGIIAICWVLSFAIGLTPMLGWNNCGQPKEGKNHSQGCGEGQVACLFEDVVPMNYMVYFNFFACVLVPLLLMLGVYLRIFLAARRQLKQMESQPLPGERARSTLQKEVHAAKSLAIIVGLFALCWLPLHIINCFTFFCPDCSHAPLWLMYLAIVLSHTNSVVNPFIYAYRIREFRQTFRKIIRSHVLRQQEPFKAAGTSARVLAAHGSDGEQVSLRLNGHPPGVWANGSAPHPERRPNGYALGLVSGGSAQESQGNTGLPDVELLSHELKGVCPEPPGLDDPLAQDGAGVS
The IC50 is the concentration at which inhibition is half-maximal. A lower IC50 goes with greater potency in that assay. In turn, `Nc1nc(N2CC[C@H]2C(=O)N2CCC(CN3CCC(C(F)(F)F)CC3)CC2)nc2nc(-c3ccco3)nn12` [Example 402, (S)-(1-(7-amino-2-(furan-2-yl)-[1,2,4]triazolo[1,5-a][1,3,5]triazin-5-yl)azetidin-2-yl)(4-((4-(trifluoromethyl)piperidin-1-yl)methyl)piperidin-1-yl)methanone] gave an IC50 of 10 nM.

In the case of `Nc1nc(N2CCC[C@H]2C(=O)N2CCN(CC(F)(F)C(F)(F)F)CC2)nc2sc(-c3ccco3)nc12` [Example 261, (S)-(1-(7-amino-2-(furan-2-yl)thiazolo[5,4-d]pyrimidin-5-yl)pyrrolidin-2-yl)(4-(2,2,3,3,3-pentafluoropropyl)piperazin-1-yl)methanone], the half-maximal inhibitory concentration (IC50) is 0.9 nM.

In turn, `CC[C@H](Nc1nc(N)n2nc(-c3ccco3)nc2n1)C(=O)N1CCN(c2ncccn2)CC1` [Example 346, (S)-2-((7-amino-2-(furan-2-yl)-[1,2,4]triazolo[1,5-a][1,3,5]triazin-5-yl)amino)-1-(4-(pyrimidin-2-yl)piperazin-1-yl)butan-1-one] displayed an IC50 of 8 nM.

The compound `CC(C)(F)CN1CCC(C2CCN(C(=O)[C@@H]3CCCN3c3nc(N)n4nc(-c5ccco5)nc4n3)CC2)CC1` [Example 245, (S)-(1-(7-amino-2-(furan-2-yl)-[1,2,4]triazolo[1,5-a][1,3,5]triazin-5-yl)pyrrolidin-2-yl)(1′-(2-fluoro-2-methylpropyl)-[4,4′-bipiperidin]-1-yl)methanone] yielded an IC50 of 15 nM.

With `Cc1ncc(C(=O)N2CCN(C(=O)[C@@H]3CCCN3c3nc(N)n4nc(-c5ccco5)nc4n3)CC2)s1` [Example 104], the 50% inhibitory concentration (IC50) was 11 nM.

`CC(C)C(=O)N1CCN(C(=O)[C@H](Cc2ccccc2)Nc2nc(N)n3nc(-c4ccco4)nc3n2)CC1` [Example 5, (S)-2-((7-amino-2-(furan-2-yl)-[1,2,4]triazolo[1,5-a][1,3,5]triazin-5-yl)amino)-1-(4-isobutyrylpiperazin-1-yl)-3-phenylpropan-1-one] gave an IC50 of 1.26 nM.

For the compound `C[C@H](Nc1nc(N)n2nc(-c3ccco3)nc2n1)C(=O)N1CC2(CCN(CC(C)(F)F)CC2)C1` [Example 366, (S)-2-((7-amino-2-(furan-2-yl)-[1,2,4]triazolo[1,5-a][1,3,5]triazin-5-yl)amino)-1-(7-(2,2-difluoropropyl)-2,7-diazaspiro[3-5]nonan-2-yl)propan-1-one], the half-maximal inhibitory concentration (IC50) was 8 nM.

On to `Cn1cc(N2CCN(C(=O)[C@@H]3CCCN3c3nc(N)n4nc(-c5ccco5)nc4n3)CC2)cn1` [Example 321, (S)-(1-(7-amino-2-(furan-2-yl)-[1,2,4]triazolo[1,5-a][1,3,5]triazin-5-yl)pyrrolidin-2-yl)(4-(1-methyl-1H-pyrazol-4-yl)piperazin-1-yl)methanone], for which the IC50 is 2 nM.

Turning to `Nc1nc(N2CCC[C@H]2C(=O)N2CCN(CC(F)(F)F)CC2)nc2nc(-c3ccco3)nn12` [Example 48, (S)-(1-(7-amino-2-(furan-2-yl)-[1,2,4]triazolo[1,5-a][1,3,5]triazin-5-yl)pyrrolidin-2-yl)(4-(2,2,2-trifluoroethyl)piperazin-1-yl)methanone], the half-maximal inhibitory concentration (IC50) stood at 13 nM.

In turn, `Nc1nc(N2CCC[C@H]2C(=O)N2CC3CCC(C2)N3C(=O)Nc2ccccc2)nc2nc(-c3ccco3)nn12` [Example 179, 3-((7-amino-2-(furan-2-yl)-[1,2,4]triazolo[1,5-a][1,3,5]triazin-5-yl)-L-prolyl)-N-phenyl-3,8-diazabicyclo[3.2.1]octane-8-carboxamide] gave an IC50 of 5 nM.

Consider `Nc1nc(N[C@@H](CO)C(=O)N2CCN(c3ncccn3)CC2)nc2nc(-c3ccco3)nn12` [Example 235, (S)-2-((7-amino-2-(furan-2-yl)-[1,2,4]triazolo[1,5-a][1,3,5]triazin-5-yl)amino)-3-hydroxy-1-(4-(pyrimidin-2-yl)piperazin-1-yl)propan-1-one], for which the IC50 was 10 nM.

For `CC(C)(C)[C@H](Nc1nc(N)n2nc(-c3ccco3)nc2n1)C(=O)N1CCN(c2ccc(F)cc2F)CC1` [Example 165, (S)-2-((7-amino-2-(furan-2-yl)-[1,2,4]triazolo[1,5-a][1,3,5]triazin-5-yl)amino)-1-(4-(2,4-difluorophenyl)piperazin-1-yl)-3,3-dimethylbutan-1-one], the IC50 was 0.6 nM.

`Nc1nc(N2CCC[C@H]2C(=O)N2C[C@@H]3C[C@H]2CN3Cc2ccc(F)cc2F)nc2nc(-c3ccco3)nn12` [Example 44, ((S)-1-(7-amino-2-(furan-2-yl)-[1,2,4]triazolo[1,5-a][1,3,5]triazin-5-yl)pyrrolidin-2-yl)((1S,4S)-5-(2,4-difluorobenzyl)-2,5-diazabicyclo[2.2.1]heptan-2-yl)methanone] showed a concentration for half-maximal inhibition (IC50) of 10 nM.

For the compound `C[C@H](Nc1nc(N)n2nc(-c3ccco3)nc2n1)C(=O)N1CCN(CC(F)F)CC1` [Example 316, (S)-2-((7-amino-2-(furan-2-yl)-[1,2,4]triazolo[1,5-a][1,3,5]triazin-5-yl)amino)-1-(4-(2,2-difluoroethyl)piperazin-1-yl)propan-1-one], the half-maximal inhibitory concentration (IC50) amounted to 26 nM.

Take `Nc1nc(N2CCC[C@H]2C(=O)N2CCN(C3CCCCC3)CC23CC3)nc2nc(-c3ccco3)nn12` [Example 344, (S)-(1-(7-amino-2-(furan-2-yl)-[1,2,4]triazolo[1,5-a][1,3,5]triazin-5-yl)pyrrolidin-2-yl)(7-cyclohexyl-4,7-diazaspiro[2.5]octan-4-yl)methanone]: the IC50 is 16 nM.

In turn, `CC(C)(F)CN1CCN(C(=O)[C@H](Cc2ccccc2)Nc2nc(N)n3nc(-c4ccco4)nc3n2)CC1` [Example 28, (S)-2-((7-amino-2-(furan-2-yl)-[1,2,4]triazolo[1,5-a][1,3,5]triazin-5-yl)amino)-1-(4-(2-fluoro-2-methylpropyl)piperazin-1-yl)-3-phenylpropan-1-one] had a concentration for half-maximal inhibition (IC50) of 8 nM.

With `Nc1nc(N2CCC[C@H]2C(=O)N2CCN(C(=O)CC(F)(F)F)CC2)nc2nc(-c3ccco3)nn12` [Example 73, 1-(4-((7-amino-2-(furan-2-yl)-[1,2,4]triazolo[1,5-a][1,3,5]triazin-5-yl)-L-prolyl)piperazin-1-yl)-3,3,3-trifluoropropan-1-one], the concentration for half-maximal inhibition (IC50) stood at 11 nM.

In turn, `C[C@H](Nc1nc(N)n2nc(-c3ccco3)nc2n1)C(=O)N1CCC(C2CCN(CC(C)(C)F)CC2)CC1` [Example 332, (S)-2-((7-amino-2-(furan-2-yl)-[1,2,4]triazolo[1,5-a][1,3,5]triazin-5-yl)amino)-1-(1′-(2-fluoro-2-methylpropyl)-[4,4′-bipiperidin]-1-yl)propan-1-one] displayed an IC50 of 5 nM.

`C[C@H]1CN(C(=O)Nc2ccccc2)CCN1C(=O)[C@@H]1CCCN1c1nc(N)n2nc(-c3ccco3)nc2n1` [Example 181, (S)-4-((7-amino-2-(furan-2-yl)-[1,2,4]triazolo [1,5-a][1,3,5]triazine-5-yl)-L-prolyl)-3-methyl-N-phenylpiperazin-1-carboxamide] had a half-inhibitory concentration (IC50) of 11 nM.

In the case of `CC(C)C1CCC(N2CCN(C(=O)[C@@H]3CCCN3c3nc(N)n4nc(-c5ccco5)nc4n3)CC2)CC1` (stereo partly drawn) [Example 153, (S)-(1-(7-amino-2-(furan-2-yl)-[1,2,4]triazolo[1,5-a][1,3,5]triazin-5-yl)pyrrolidin-2-yl)(4-(4-isopropylcyclohexyl)piperazin-1-yl)methanone], the IC50 came out at 12 nM.

`CC(C)(F)CN1CCC(C2CCN(C(=O)[C@@H]3CCN3c3cc4nc(-c5ccco5)nn4c(N)n3)CC2)CC1` [Example 382, (S)-(1-(5-amino-2-(furan-2-yl)-[1,2,4]triazolo[1,5-c]pyrimidin-7-yl)azetidin-2-yl)(1′-(2-fluoro-2-methylpropyl)-[4,4′-bipiperidin]-1-yl)methanone] came in with an IC50 of 3 nM.

For `CCC(F)(F)CN1CCN(C(=O)[C@@H]2CCCN2c2nc(N)c3nc(-c4ccco4)oc3n2)CC1` [Example 270, (S)-(1-(7-amino-2-(furan-2-yl)oxazolo[5,4-d]pyrimidin-5-yl)pyrrolidin-2-yl)(4-(2,2-difluorobutyl)piperazin-1-yl)methanone], the concentration for half-maximal inhibition (IC50) came to 9 nM.

With `CCCCN1CCN(C(=O)[C@@H]2CCCN2c2nc(N)c3nc(-c4ccc(C)o4)sc3n2)CC1` [Example 243, (S)-(1-(7-amino-2-(5-methylfuran-2-yl)thiazolo[5,4-d]pyrimidin-5-yl)pyrrolidin-2-yl)(4-butylpiperazin-1-yl)methanone], the IC50 came out at 14 nM.

Compound `Cc1cccc(NC(=O)N2CCN(C(=O)[C@@H]3CCCN3c3nc(N)n4nc(-c5ccco5)nc4n3)CC2)c1` [Example 61, 4-((7-amino-2-(furan-2-yl)-[1,2,4]triazolo[1,5-a][1,3,5]triazin-5-yl)-L-prolyl)-N-(m-tolyl)piperazin-1-carboxamide] came in with an IC50 of 3 nM.

`CC(C)(F)CN1CCN(C(=O)[C@@H](Nc2nc(N)n3nc(-c4ccco4)nc3n2)C2CC2)CC1` [Example 339, (S)-2-((7-amino-2-(furan-2-yl)-[1,2,4]triazolo[1,5-a][1,3,5]triazin-5-yl)amino)-2-cyclopropyl-1-(4-(2-fluoro-2-methylpropyl)piperazin-1-yl)ethan-1-one] had an IC50 of 18 nM.

As for `Nc1nc(N2CCC[C@H]2C(=O)N2CCN(c3ccc(F)cc3F)CC2)nc2nc(-c3ccco3)nn12` [Example 12, (S)-(1-(7-amino-2-(furan-2-yl)-[1,2,4]triazolo[1,5-a][1,3,5]triazin-5-yl)pyrrolidin-2-yl)(4-(2,4-difluorophenyl)piperazin-1-yl)methanone], the IC50 came out at 1.43 nM.

Take `CC(C)(F)CN1CCN(C(=O)[C@@H](Nc2nc(N)n3nc(-c4ccco4)nc3n2)C2CCCCC2)CC1` [Example 147, (S)-2-((7-amino-2-(furan-2-yl)-[1,2,4]triazolo[1,5-a][1,3,5]triazin-5-yl)amino)-2-cyclohexyl-1-(4-(2-fluoro-2-methylpropyl)piperazin-1-yl)ethan-1-one]: the IC50 was determined as 3 nM.

Source of the values: patent US20240217978A1 (CHONG KUN DANG PHARMACEUTICAL CORP., priority 2021, published 2024).
